In ChEMBL document CHEMBL5154839, “Discovery of a selective and covalent small-molecule inhibitor of BFL-1 protein that induces robust apoptosis in cancer cells” (Eur J Med Chem, 2022):
Calls of active or inactive are those of the source. No cut-off for these calls is given here.

Columns and labels:
U-937 [1] = experiment: Induction of apoptosis in human U-937 cells assessed as assessed as increase in PARP cleavage measured after 24 hrs by Western blot analysis; format: functional, cell-based; conditions: DDE = dose-dependent effect
Kasumi 1 [2] = experiment: Induction of apoptosis in human Kasumi 1 cells overexpressing BFL-1 assessed as increase in cytochrome c level at 5 to 40 uM incubated for 3 hrs by immunoblotting analysis; format: functional, cell-based; conditions: dose 5-40 µM
[3] = biological target: Transcriptional enhancer factor TEF-3 (Homo sapiens, UniProt Q15561); experiment: Displacement of FAM- labeled YAP1 peptide from TEAD4 (217 to 434 residues) (unknown origin) expressed in Escherichia coli BL21 (DE3) assessed as inhibition constant incubated for 1.5 hrs by fluorescence polarization-based competitive binding assay
Transcriptional enhancer factor TEF-3, sequence (Q15561 whole entry, the tested form may be a part): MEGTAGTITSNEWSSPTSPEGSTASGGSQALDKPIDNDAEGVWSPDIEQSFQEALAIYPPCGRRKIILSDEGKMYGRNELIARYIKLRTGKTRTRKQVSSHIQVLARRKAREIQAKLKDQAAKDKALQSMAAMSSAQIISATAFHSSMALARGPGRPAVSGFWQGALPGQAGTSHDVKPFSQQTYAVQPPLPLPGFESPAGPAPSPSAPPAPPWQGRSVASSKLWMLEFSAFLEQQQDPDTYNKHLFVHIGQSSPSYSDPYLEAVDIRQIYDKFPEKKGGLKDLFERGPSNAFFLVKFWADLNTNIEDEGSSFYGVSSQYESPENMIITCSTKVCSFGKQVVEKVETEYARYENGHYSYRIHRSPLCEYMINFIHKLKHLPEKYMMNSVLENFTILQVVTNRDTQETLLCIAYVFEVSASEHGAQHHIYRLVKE

U-937 [4] = experiment: Induction of apoptosis in human U-937 cells assessed as early apoptotic cells at 20 uM measured after 4 hrs by Annexin PI staining based flow cytometry method (reference value: 1.95 %); format: functional
[5] = biological target: Programmed cell death protein 1/Programmed cell death 1 ligand 1 (Homo sapiens, UniProt Q15116+Q9NZQ7); experiment: Inhibition of biotinylated tagged PD-1 (unknown origin)/His tagged PD-L1 (unknown origin) protein-protein interaction assessed as inhibition constant incubated for 90 mins by AlphaLISA assay; format: protein-complex assay
Programmed cell death protein 1/Programmed cell death 1 ligand 1, sequence (Q15116 whole entry, the tested form may be a part): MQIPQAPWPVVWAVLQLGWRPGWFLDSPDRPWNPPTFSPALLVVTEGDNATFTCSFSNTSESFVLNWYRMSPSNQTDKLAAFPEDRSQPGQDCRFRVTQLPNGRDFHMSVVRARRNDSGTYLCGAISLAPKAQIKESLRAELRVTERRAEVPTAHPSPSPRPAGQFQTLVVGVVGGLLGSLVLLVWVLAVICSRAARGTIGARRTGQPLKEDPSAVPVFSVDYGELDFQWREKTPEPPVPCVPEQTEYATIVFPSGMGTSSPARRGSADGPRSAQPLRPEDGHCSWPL
Programmed cell death protein 1/Programmed cell death 1 ligand 1, sequence (Q9NZQ7 whole entry, the tested form may be a part): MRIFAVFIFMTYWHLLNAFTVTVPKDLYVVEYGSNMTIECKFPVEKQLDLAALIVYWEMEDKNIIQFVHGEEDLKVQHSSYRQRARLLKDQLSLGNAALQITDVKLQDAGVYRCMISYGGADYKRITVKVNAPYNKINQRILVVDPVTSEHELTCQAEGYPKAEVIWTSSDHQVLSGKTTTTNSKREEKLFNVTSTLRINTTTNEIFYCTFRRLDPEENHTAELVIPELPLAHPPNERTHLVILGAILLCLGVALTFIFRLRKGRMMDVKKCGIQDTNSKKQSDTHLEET

Homo sapiens = species on record: Homo sapiens; experiment: Displacement of fluorescein tagged BID BH3 peptide from His-tagged recombinant BFL-1 (1 to 151 residues) C55A mutant (unknown origin) expressed in Escherichia coli BL21 (DE3) assessed as fold decrease in inhibition constant incubated for 24 hrs by fluorescence polarization-based competitive binding assay relative to wild type
HL-60 = experiment: Growth inhibition of human HL-60 cells incubated for 4 days by WST assay; format: functional, cell-based; conditions: HL-60, 96 h
U-937 [6] = experiment: Induction of apoptosis in human U-937 cells assessed as late apoptotic cells at 10 uM measured after 4 hrs by Annexin PI staining based flow cytometry method (reference value: 1.62 %); format: functional
MM1.S [7] = experiment: Growth inhibition of human MM1.S cells incubated for 4 days by WST assay; format: functional, cell-based; conditions: 96 h
U-937 [8] = experiment: Induction of apoptosis in human U-937 cells assessed as necrotic cells at 10 uM measured after 4 hrs by Annexin PI staining based flow cytometry method (reference value: 0.00 %); format: functional
[9] = biological target: beta-catenin-B-cell lymphoma 9 protein complex (Homo sapiens, UniProt P35222); experiment: Inhibition of N-terminal biotinylated human BCL9 (350 to 375 residues)/C-terminal 6-His-tagged beta-catenin (1 to 781 residues) (unknown origin) expressed in Escherichia coli BL21 (DE3) protein-protein interaction assessed as inhibition constant incubated for 1 hr by Alphascreen assay
beta-catenin-B-cell lymphoma 9 protein complex, sequence (P35222 whole entry, the tested form may be a part): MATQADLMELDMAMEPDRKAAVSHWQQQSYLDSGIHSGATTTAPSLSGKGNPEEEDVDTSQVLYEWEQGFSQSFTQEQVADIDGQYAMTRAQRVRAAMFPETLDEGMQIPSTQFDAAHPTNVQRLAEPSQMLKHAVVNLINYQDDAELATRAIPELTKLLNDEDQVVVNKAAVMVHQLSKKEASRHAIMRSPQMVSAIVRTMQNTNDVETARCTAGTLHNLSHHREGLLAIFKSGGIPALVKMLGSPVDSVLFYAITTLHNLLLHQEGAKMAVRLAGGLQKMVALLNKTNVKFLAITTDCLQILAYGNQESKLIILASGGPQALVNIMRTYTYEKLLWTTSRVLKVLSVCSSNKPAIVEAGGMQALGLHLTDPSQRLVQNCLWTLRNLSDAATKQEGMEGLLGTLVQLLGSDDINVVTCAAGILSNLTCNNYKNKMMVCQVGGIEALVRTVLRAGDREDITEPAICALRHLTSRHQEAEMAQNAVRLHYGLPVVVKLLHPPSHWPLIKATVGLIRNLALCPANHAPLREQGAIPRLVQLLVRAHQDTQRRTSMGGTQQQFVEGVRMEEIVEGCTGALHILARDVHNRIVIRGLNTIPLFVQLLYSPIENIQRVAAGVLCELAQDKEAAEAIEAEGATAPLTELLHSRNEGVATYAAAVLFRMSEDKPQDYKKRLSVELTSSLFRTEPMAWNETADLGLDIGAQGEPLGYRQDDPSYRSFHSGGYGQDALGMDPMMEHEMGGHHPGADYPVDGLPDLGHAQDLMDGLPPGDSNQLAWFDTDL
beta-catenin-B-cell lymphoma 9 protein complex, sequence (O00512 whole entry, further chain, the tested form may be a part): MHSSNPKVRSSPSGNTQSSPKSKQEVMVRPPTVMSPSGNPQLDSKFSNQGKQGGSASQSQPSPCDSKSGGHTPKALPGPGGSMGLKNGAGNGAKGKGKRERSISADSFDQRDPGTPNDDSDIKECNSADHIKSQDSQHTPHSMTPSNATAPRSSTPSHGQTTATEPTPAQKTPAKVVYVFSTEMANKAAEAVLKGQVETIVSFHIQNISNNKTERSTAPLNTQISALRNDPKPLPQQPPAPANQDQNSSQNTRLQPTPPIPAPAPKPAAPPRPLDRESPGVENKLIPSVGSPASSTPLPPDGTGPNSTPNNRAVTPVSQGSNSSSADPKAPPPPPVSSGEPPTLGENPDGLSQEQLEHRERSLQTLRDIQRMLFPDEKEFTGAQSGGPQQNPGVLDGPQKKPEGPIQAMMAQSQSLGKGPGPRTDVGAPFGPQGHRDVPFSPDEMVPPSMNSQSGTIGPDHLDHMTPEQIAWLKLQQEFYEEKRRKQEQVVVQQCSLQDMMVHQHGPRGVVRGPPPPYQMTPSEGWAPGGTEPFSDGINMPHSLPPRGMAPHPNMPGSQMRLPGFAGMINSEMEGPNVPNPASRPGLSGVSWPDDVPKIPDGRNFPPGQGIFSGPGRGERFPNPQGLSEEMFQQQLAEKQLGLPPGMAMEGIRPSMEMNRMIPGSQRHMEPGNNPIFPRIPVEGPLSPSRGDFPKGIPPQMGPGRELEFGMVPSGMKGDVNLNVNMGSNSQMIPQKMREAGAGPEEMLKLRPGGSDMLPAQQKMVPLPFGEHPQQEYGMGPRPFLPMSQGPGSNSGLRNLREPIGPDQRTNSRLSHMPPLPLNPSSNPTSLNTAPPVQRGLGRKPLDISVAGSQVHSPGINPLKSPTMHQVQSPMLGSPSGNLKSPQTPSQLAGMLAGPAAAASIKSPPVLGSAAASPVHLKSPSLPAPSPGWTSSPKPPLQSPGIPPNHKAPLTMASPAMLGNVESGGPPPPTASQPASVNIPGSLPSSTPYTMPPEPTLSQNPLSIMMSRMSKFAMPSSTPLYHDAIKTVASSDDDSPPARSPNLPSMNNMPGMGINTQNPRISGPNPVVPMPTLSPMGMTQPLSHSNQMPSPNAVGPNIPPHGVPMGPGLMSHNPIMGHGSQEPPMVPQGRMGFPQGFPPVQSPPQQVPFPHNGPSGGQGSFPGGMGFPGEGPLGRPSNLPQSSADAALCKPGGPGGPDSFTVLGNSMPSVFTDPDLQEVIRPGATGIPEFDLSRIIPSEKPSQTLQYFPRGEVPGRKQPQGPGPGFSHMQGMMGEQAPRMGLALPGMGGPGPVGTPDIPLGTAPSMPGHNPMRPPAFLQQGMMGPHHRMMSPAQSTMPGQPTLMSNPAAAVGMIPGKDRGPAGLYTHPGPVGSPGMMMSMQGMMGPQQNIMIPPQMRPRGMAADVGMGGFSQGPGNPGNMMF

U-937 [10] = experiment: Growth inhibition of human U-937 cells incubated for 4 days by WST assay; format: functional, cell-based; conditions: U-937, 96 h
Raji = experiment: Growth inhibition of human Raji cells incubated for 4 days by WST assay; format: functional, cell-based; conditions: 96 h
[11] = biological target: T1, Bromodomain-containing protein 3 (Homo sapiens, UniProt Q15059); experiment: Binding affinity to recombinant human BRD3 BD2 (306-417 residues) assessed as inhibition constant by fluorescence polarization assay
T1 sequence (Q15059 whole entry, the tested form may be a part): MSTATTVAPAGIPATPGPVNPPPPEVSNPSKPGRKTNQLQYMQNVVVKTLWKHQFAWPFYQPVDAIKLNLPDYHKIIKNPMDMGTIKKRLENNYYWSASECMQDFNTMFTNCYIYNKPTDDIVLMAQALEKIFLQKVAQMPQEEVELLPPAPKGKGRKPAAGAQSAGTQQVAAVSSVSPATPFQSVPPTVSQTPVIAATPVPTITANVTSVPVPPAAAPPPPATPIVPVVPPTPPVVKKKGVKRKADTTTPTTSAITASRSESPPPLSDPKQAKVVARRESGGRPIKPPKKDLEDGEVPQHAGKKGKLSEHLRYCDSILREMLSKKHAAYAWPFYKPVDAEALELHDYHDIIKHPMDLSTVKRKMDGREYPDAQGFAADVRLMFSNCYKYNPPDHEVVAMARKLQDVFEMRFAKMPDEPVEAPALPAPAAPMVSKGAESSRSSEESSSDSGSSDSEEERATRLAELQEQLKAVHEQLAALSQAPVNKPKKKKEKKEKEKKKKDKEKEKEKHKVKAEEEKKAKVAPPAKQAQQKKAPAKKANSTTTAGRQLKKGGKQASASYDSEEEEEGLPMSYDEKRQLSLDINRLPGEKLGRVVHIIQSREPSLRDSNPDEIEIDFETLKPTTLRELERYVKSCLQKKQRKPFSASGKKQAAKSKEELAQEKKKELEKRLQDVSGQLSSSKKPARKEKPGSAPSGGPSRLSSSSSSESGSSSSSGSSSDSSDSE

[12] = Displacement of FAM- labeled PDI peptide from MDM4 C17S mutant (14 to 111 residues) (unknown origin) expressed in Escherichia coli BL21 (DE3) assessed as inhibition constant incubated for 1.5 hrs by fluorescence polarization-based competitive binding assay; design: species or system Homo sapiens
U-937 [13] = experiment: Induction of apoptosis in human U-937 cells assessed as necrotic cells at 60 uM measured after 4 hrs by Annexin PI staining based flow cytometry method (reference value: 0.00 %); format: functional
U-937 [14] = experiment: Induction of apoptosis in human U-937 cells overexpressing BFL-1 assessed as increase in cytochrome c level incubated for 3 hrs by immunoblotting analysis; format: functional, cell-based
U-937 [15] = experiment: Induction of apoptosis in human U-937 cells assessed as late apoptotic cells at 60 uM measured after 4 hrs by Annexin PI staining based flow cytometry method (reference value: 1.62 %); format: functional
U-937 [16] = experiment: Induction of apoptosis in human U-937 cells assessed as increase in BFL-1 protein expression after 24 hrs by Western blot analysis; format: functional, cell-based; conditions: DDE = dose-dependent effect
[17] = Displacement of fluorescein tagged BID BH3 peptide from His-tagged recombinant BFL-1 (1 to 151 residues) C55A mutant (unknown origin) expressed in Escherichia coli BL21 (DE3) assessed as inhibition constant incubated for 24 hrs by fluorescence polarization-based competitive binding assay; design: species or system Homo sapiens
U-937 [18] = experiment: Induction of apoptosis in human U-937 cells assessed as necrotic cells at 40 uM measured after 4 hrs by Annexin PI staining based flow cytometry method (reference value: 0.00 %); format: functional
[19] = biological target: Bcl-2-related protein A1 (Homo sapiens) (UniProt Q16548); experiment: Binding affinity to His-tagged recombinant BFL-1 (1 to 151 residues) (unknown origin) expressed in Escherichia coli BL21 (DE3) assessed as association constant by surface plasmon resonance analysis
K562 = experiment: Upregulation of BFL-1protein expression in human K562 cells by Western blotting analysis; format: functional, cell-based
Kasumi 1 [20] = experiment: Upregulation of BFL-1 protein expression in human Kasumi 1 cells by Western blotting analysis; format: functional, cell-based
Bcl-2-related protein A1 = biological target: T2, Bcl-2-related protein A1 (Homo sapiens, UniProt Q16548); experiment: Binding affinity to His-tagged recombinant BFL-1 (1 to 151 residues) (unknown origin) expressed in Escherichia coli BL21 (DE3) assessed as dissociation constant by surface plasmon resonance analysis
T2 sequence (Q16548 whole entry): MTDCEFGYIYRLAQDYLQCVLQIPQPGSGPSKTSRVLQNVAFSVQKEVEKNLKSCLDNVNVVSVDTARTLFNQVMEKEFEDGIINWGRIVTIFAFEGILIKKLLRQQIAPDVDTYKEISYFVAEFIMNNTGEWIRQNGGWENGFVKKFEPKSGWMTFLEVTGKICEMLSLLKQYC

U-937 [21] = experiment: Upregulation of BFL-1 protein expression in human U-937 cells by Western blotting analysis; format: functional, cell-based
[22] = biological target: BCL2A11/BBC3 (Homo sapiens) (UniProt Q16548+Q9BXH1); experiment: Inhibition of human BFL-1/PUMA protein-protein interaction in human Kasumi 1 cells assessed as increase in BFL-1 protein level at 20 to 80 uM measured after 5 hrs by co-immunoprecipitation assay; format: cell-based; conditions: dose 20-80 µM
BCL2A11/BBC3 (Homo sapiens), sequence (Q9BXH1 whole entry, looked up, one chain of several): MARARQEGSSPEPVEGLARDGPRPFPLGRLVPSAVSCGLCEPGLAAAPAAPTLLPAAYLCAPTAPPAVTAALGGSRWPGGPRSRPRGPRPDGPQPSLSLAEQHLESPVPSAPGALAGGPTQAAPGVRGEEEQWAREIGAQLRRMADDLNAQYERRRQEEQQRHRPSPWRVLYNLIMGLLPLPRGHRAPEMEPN

U-937 [23] = experiment: Induction of apoptosis in human U-937 cells assessed as phosphatidylserine level measured after 4 hrs by Annexin V staining based flow cytometry analysis; format: functional, cell-based; conditions: DDE = dose-dependent effect
RPMI-8226 = experiment: Growth inhibition of human RPMI-8226 cells incubated for 4 days by WST assay; format: functional, cell-based; conditions: RPMI-8226, 96 h
Bcl-2-like protein 1 = Bcl-2-like protein 1 (Homo sapiens, UniProt Q07817); experiment: Displacement of fluorescein tagged BAK peptide from N-terminal His tagged human BCL-xL (1 to 209 residues) expressed in Escherichia coli BL21 (DE3) assessed as inhibition constant incubated for 1.5 hrs by fluorescence polarization-based competitive binding assay
Bcl-2-like protein 1, sequence (Q07817 whole entry, the tested form may be a part): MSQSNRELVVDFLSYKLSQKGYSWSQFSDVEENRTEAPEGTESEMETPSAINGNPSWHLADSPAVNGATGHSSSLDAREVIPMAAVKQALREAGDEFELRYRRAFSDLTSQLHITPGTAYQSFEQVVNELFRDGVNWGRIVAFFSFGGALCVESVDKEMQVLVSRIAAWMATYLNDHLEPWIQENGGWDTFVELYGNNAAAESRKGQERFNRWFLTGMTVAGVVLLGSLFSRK

[24] = biological target: T1, Bromodomain-containing protein 3; experiment: Binding affinity to recombinant human BRD3 BD1 (24-144 residues) assessed as inhibition constant by fluorescence polarization assay
MM1.S [25] = experiment: Upregulation of BFL-1protein expression in human MM1.S cells by Western blotting analysis; format: functional, cell-based

C=CC(=O)N1CCN(c2c3ccc(-c4cccc(F)c4)cc3nn2Cc2ccccc2)CC1
Activity (U-937 [1]): Dde | Activity (Kasumi 1 [2]): Active | Ki [3]: > 400 µM | Activity (U-937 [4]): 8.02% | Ki [5]: > 400 µM | fold change (FC) (Homo sapiens): 21 | IC50 (HL-60): 10.7 µM | Activity (U-937 [6]): 2.19% | IC50 (MM1.S [7]): 6.8 µM | Activity (U-937 [8]): 0.16% | Ki [9]: > 400 µM | IC50 (U-937 [10]): 2.8 µM | IC50 (Raji): 26.9 µM | Ki [11]: > 400 µM | Ki [12]: > 400 µM | Activity (U-937 [13]): 11.37% | Activity (U-937 [14]): Active | Activity (U-937 [15]): 21.52% | Activity (U-937 [16]): Dde | Ki [17]: 8.68 µM | Activity (U-937 [18]): 7.22% | Ka [19]: 2.09 10^5/Ms | Activity (K562): Active | Activity (Kasumi 1 [20]): Active | Kd (Bcl-2-related protein A1): 0.262 µM | Activity (U-937 [21]): Active | Activity [22]: Active | Activity (U-937 [23]): Dde | IC50 (RPMI-8226): 8.7 µM | Ki (Bcl-2-like protein 1): > 400 µM | Ki [24]: > 400 µM | Activity (MM1.S [25]): Active
